The values that follow come from US20250268967A1, “NUTRACEUTICAL COMPOUNDS USEFUL IN THE TREATMENT OF CORONAVIRUS DISEASE” (priority 2020, published 2025).

Like-named read-outs stand apart in the source and are kept apart here.

For data set [1] the following is noted: from three publications; read-out: cytotoxicity (CC50); cited from earlier work.
Data set [2] relates to SARS-CoV-2. The data set can be described thus: In vitro antiviral assay, VeroE6 cells and Calu3 cells (cell line not separated in the statement). The note with it: for inhibition of the SARS-CoV-2 virus: cell line not specified (FIG. 2, FIG. 6).
In data set [3] the test system is SARS-CoV-2. The data set can be described thus: In vitro antiviral immunostaining assay in Vero E6 cells.
Data set [4] addresses T1, α-globulin (vitamin D-Binding Protein [DBP]) (Homo sapiens, UniProt P02774).
T1 sequence (P02774 17-474): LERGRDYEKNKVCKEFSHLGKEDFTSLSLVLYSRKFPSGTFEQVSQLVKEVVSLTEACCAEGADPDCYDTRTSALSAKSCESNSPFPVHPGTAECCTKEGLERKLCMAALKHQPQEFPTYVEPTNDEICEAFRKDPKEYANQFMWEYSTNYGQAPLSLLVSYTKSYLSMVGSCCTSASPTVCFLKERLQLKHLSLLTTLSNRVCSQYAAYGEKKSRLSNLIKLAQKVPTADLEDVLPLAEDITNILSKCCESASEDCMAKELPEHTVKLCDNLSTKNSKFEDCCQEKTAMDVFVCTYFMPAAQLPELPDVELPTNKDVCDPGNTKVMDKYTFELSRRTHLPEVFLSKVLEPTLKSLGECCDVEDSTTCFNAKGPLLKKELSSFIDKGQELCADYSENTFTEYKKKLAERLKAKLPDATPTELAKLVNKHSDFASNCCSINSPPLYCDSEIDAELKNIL
As to conditions: binds weakly to α-globulin (DBP) after absorption via chylomicrons; cited from earlier work.

The subject of data set [5] is SARS-CoV-2. In words: In vitro antiviral immunostaining assay in Calu-3 cells. Type of data set: cell-based.
Data set [6] deals with COVID-19 protease (Severe acute respiratory syndrome coronavirus 2, UniProt P0DTD1). The note with it: molecular docking, in words; cited from earlier work.
For data set [7] the following is noted: infected patients, 60 mg daily for four months; in words; cited from earlier work.
Data set [8] has as its system SARS-CoV-2. In words: microbe, parasite or virus in culture. Format: cell-based.
Data set [9] in a line: in vitro. As to conditions: human.
For data set [10], the system named is Calu-3 cells. As to conditions: in words.

With `CCC(CC)COC(=O)[C@H](C)N[P@](=O)(OC[C@H]1O[C@@](C#N)(c2ccc3c(N)ncnn23)[C@H](O)[C@@H]1O)Oc1ccccc1` [Remdesivir], in [1], the CC50 was above 100 µM.

For `[Zn]` [Zinc], in data set [2] (FIG. 6, in words), the “cytotoxicity, as measured by cell viability” value is given as “not observed”. Further, the “inhibition of the SARS-CoV-2 virus” value in data set [2] is listed as “about 75%”.

Consider `C=C1CC[C@H](O)C/C1=C/C=C1\CCC[C@]2(C)[C@@H]([C@H](C)CCCC(C)C)CC[C@@H]12` [Vitamin D3, cholecalciferol], for which, in data set [3] (Vero E 6 cells, SARS-CoV-2, in words), the EC100 result is “Achieved”. Moreover, the IC50 was around 33.5 µM in [3] (VeroE6 cells, FIG. 2) and around 22.3 µM in [5] (Severe acute respiratory syndrome coronavirus 2, Calu-3). Besides, the protein binding in data set [4] is 50-80%. Also, the “inhibition of the SARS-CoV-2 virus” value in [2] is given as “about 100%”.

In the case of `C[C@@H]1C(=O)O[C@H]2C[C@@]34[C@H]5C[C@@H](C(C)(C)C)[C@]36[C@@H](OC(=O)[C@@H]6O)O[C@@]4(C(=O)O5)[C@]21O` [Ginkgolide A], in data set [6], the “predicted binding affinity to the COVID-19 protease” value is listed as “high binding affinity”.

For `CC1=C(/C=C/C(C)=C/C=C/C(C)=C/C=C/C=C(C)/C=C/C=C(C)/C=C/C2=C(C)CCCC2(C)C)C(C)(C)CCC1` [Beta Carotene, Beta-carotene], the clinical toxicity result in data set [7] is on record as “No clinical toxicity was observed”.

`CC(C)=CCC[C@](C)(O)[C@@H]1CC=C(C)CC1` [Levomenol, α-(−)-bisabolol]: in data set [8] (Calu-3 cells, from CC50 and EC50), the “selectivity index (SI)” value is listed as 26.1. Moreover, in data set [8] (Severe acute respiratory syndrome coronavirus 2, Calu-3 cells infected with SARS-CoV-2, FIG. 4, read-out: EC50 (antiviral activity against SARS-CoV-2)), the EC50 stood at 0.115 µM. Moreover, in data set [5] (Calu-3 cells infected with SARS-CoV-2, FIG. 3), the “inhibition of the virus” value was “about 60%”. Moreover, the CC50 in data set [9] was determined as 3 µM. Further, the “cytotoxicity, as measured by inhibition of cell viability” value in data set [10] is “not observed”.

The term IC50 denotes the concentration at which inhibition is half-maximal. High values mean weaker potency, low ones greater potency. One may read the EC50 as the concentration that produces a half-maximal response.
